Source: article PMC5909127, “Optimization of a “bump-and-hole” approach to allele-selective BET bromodomain inhibition” (Chemical Science, 2018)

Legend:
[1] = target: WT BET bromodomains (BD1 and BD2 of BRD2, BRD3 and BRD4); assay: competitive AlphaLISA (Bio-JQ1 displacement); assay type: binding, human; conditions: mean and SD of all somatic bromodomains; active enantiomer concentration
[2] = tested on: L/V BET bromodomains (BD1 and BD2 of BRD2, BRD3 and BRD4); assay: competitive AlphaLISA (Bio-JQ1 displacement); assay type: binding, human; conditions: for AlphaLISA pIC50 ± SD Δ: L/V minus WT; for AlphaLISA pIC50 ± SD L/V: mean and SD of all somatic bromodomains, active enantiomer concentration
[3] = target: BRD2 BD1 WT (Homo sapiens, UniProt P25440); assay: competitive AlphaLISA; assay type: binding
[4] = target: BRD2 BD1 L/V (Homo sapiens, UniProt P25440, L110V); assay: competitive AlphaLISA; assay type: binding
[5] = target: BRD2 BD2 WT (Homo sapiens, UniProt P25440); assay: competitive AlphaLISA; assay type: binding
[6] = target: BRD2 BD2 L/V (Homo sapiens, UniProt P25440, L383V); assay: competitive AlphaLISA; assay type: binding
[7] = target: BRD3 BD1 WT (Homo sapiens, UniProt Q15059); assay: competitive AlphaLISA; assay type: binding
[8] = target: BRD3 BD1 L/V (Homo sapiens, UniProt Q15059, L70V); assay: competitive AlphaLISA; assay type: binding
[9] = target: BRD3 BD2 WT (Homo sapiens, UniProt Q15059); assay: competitive AlphaLISA; assay type: binding
[10] = target: BRD3 BD2 L/V (Homo sapiens, UniProt Q15059, L345V); assay: competitive AlphaLISA; assay type: binding
[11] = target: BRD4 BD1 WT (Homo sapiens, UniProt O60885); assay: competitive AlphaLISA; assay type: binding; conditions: AlphaLISA pIC50 Value BRD4 BD1 WT
[12] = target: BRD4 BD1 L/V (Homo sapiens, UniProt O60885, L94V); assay: competitive AlphaLISA; assay type: binding; conditions: AlphaLISA pIC50 Value BRD4 BD1 L/V
[13] = target: BRD4 BD2 WT (Homo sapiens, UniProt O60885); assay: competitive AlphaLISA; assay type: binding
[14] = target: BRD4 BD2 L/V (Homo sapiens, UniProt O60885, L387V); assay: competitive AlphaLISA; assay type: binding
[15] = target: BRDT BD1 WT (Homo sapiens, UniProt Q58F21); assay: competitive AlphaLISA; assay type: binding
[16] = target: BRDT BD1 L/V (Homo sapiens, UniProt Q58F21, L63V); assay: competitive AlphaLISA; assay type: binding
[17] = target: BRDT BD2 WT (Homo sapiens, UniProt Q58F21); assay: competitive AlphaLISA; assay type: binding
[18] = target: BRDT BD2 L/V (Homo sapiens, UniProt Q58F21, L306V); assay: competitive AlphaLISA; assay type: binding
[19] = Plasma Half-life; conditions: BALB/c, mouse, pH 7.4
[20] = Intrinsic Clearance; conditions: mouse liver microsomes
[21] = in vitro; conditions: PAMPA, pH 7.4

Sequence of BRD3 BD1 WT (Q15059 24-144): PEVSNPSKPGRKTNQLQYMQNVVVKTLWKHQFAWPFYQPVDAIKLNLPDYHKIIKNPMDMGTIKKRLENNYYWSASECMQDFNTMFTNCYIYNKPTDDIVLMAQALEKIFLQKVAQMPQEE
Sequence of BRD3 BD1 L/V (Q15059 24-144 L70V limits assumed): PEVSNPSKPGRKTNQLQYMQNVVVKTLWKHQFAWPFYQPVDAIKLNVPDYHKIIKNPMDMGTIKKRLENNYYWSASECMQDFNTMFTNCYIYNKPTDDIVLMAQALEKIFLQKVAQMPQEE
Sequence of BRD3 BD2 L/V (Q15059 306-416 L345V limits assumed): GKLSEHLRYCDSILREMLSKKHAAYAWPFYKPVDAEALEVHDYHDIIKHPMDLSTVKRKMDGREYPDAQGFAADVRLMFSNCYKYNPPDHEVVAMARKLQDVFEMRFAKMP
Sequence of BRD3 BD2 WT (Q15059 306-416): as the sequence (Q15059 306-416 L345V limits assumed) above, with V40L counted along it
Sequence of BRD2 BD1 L/V (P25440 71-176 L110V limits assumed): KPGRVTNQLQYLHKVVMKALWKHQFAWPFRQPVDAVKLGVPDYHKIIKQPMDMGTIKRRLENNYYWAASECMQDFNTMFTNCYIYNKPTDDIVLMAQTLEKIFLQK
Sequence of BRD2 BD2 L/V (P25440 344-455 L383V): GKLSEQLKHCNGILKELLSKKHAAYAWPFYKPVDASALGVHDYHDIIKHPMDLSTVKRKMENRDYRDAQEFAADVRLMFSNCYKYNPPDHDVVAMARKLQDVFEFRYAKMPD
Sequence of BRD2 BD1 WT (P25440 71-176): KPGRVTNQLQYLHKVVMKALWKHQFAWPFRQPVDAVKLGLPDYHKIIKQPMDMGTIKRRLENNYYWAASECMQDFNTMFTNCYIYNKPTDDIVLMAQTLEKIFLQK
Sequence of BRD2 BD2 WT (P25440 344-455): as the sequence (P25440 344-455 L383V) above, with V40L counted along it

Row | SMILES | AlphaLISA pIC50 ± SD WT [1] | AlphaLISA pIC50 ± SD Δ [2] | AlphaLISA pIC50 ± SD L/V [2] | IC50 [3] [nM] | IC50 [4] [nM] | IC50 [5] [nM] | IC50 [6] [nM] | IC50 [7] [nM] | IC50 [8] [nM] | IC50 [9] [nM] | IC50 [10] [nM] | IC50 [11] [nM] | IC50 [12] [nM] | IC50 [13] [nM] | IC50 [15] [nM] | IC50 [16] [nM] | IC50 [17] [nM] | IC50 [18] [nM] | half-life at 50 µM [19] [h] | CL int [20] [ml min^–1 g^–1] | further results
1 | CC[C@@H](C(=O)N(CC)CC)[C@@H]1N=C(c2ccc(Cl)cc2)c2cc(OC)ccc2-n2c(C)nnc21 (relative stereo) [Compound 20] | 4.6 ± 0.1 | 1.2 ± 0.2 | 5.8 ± 0.2 | 31600 | 2000 | 15800 | 1580 | 20000 | 501 | 25100 | 1580 | 25100 | 1260 | 31600 | 39800 | 6310 | 39800 | 6310 | > 3 | >50 | IC50 [14]: 3160 nM
2 | C=CC[C@@H](C(=O)NCC)[C@@H]1N=C(c2ccc(Cl)cc2)c2cc(OC)ccc2-n2c(C)nnc21 (relative stereo) [Compound 18] | 4.3 ± 0.1 | 1.5 ± 0.1 | 5.9 ± 0.2 | 50100 | 2510 | 50100 | 1000 | 31600 | 794 | 50100 | 1260 | 39800 | 1260 | 63100 | 79400 | 5010 | 79400 | 5010 | > 3 | 2.6 | IC50 [14]: 2000 nM; Papp [21]: 5.2 ×10⁻⁶ cm/s
3 | COC(=O)CC1N=C(c2ccc(Cl)cc2)c2ccc(OC)cc2-n2c(C)nnc21 (stereo not drawn) [Compound 2] | 5.8 ± 0.2 | 0.1 ± 0.1 | 5.9 ± 0.2 | 2000 | 1580 | 2510 | 2000 |  | 501 | 2510 | 1000 | 1000 | 1000 | 2510 | 2000 | 1580 | 3980 | 3160 | 1.12 | 1.7 | IC50 [14]: 2510 nM
4 | CC[C@@H](C(=O)OC(C)(C)C)[C@@H]1N=C(c2ccc(Cl)cc2)c2cc(OC)ccc2-n2c(C)nnc21 [Compound 23] | 5.3 ± 0.1 | 0.7 ± 0.1 | 6.0 ± 0.2 | 5010 | 1580 | 5010 | 1000 | 2510 | 398 | 5010 | 794 | 5010 | 794 | 6310 | 6310 | 2510 | 6310 | 2510 | > 3 | 30.7 | IC50 [14]: 1580 nM
5 | C=CC[C@@H](C(=O)OC(C)(C)C)[C@@H]1N=C(c2ccc(Cl)cc2)c2cc(OC)ccc2-n2c(C)nnc21 [Compound 24] | 5.3 ± 0.1 | 0.9 ± 0.2 | 6.2 ± 0.2 | 5010 | 1260 | 7940 | 501 | 3980 | 316 | 6310 | 794 | 5010 |  | 3980 | 7940 | 2000 | 10000 | 1580 | > 3 | 39.1 | IC50 [14]: 1000 nM
6 | C=CC[C@@H](C(=O)OC(C)(C)C)[C@@H]1N=C(c2ccc(Cl)cc2)c2ccc(OC)cc2-n2c(C)nnc21 [Compound 26] | 5.2 ± 0.2 | 0.5 ± 0.1 | 5.8 ± 0.2 | 7940 | 2510 | 6310 | 1580 | 3160 | 1260 | 5010 | 1260 | 6310 | 1580 | 10000 | 10000 | 3980 | 10000 | 2510 | > 3 | 39.4 | IC50 [14]: 3160 nM
7 | COC(=O)CC1N=C(c2ccc(Cl)cc2)c2cc(OC)ccc2-n2c(C)nnc21 (stereo not drawn) [Compound 1] |  |  |  | 316 |  | 316 | 316 | 126 | 63.1 |  | 501 |  |  |  | 501 |  |  | 1000 | 0.9 | <0.5 | Papp [21]: 14.9 ×10⁻⁶ cm/s
8 | COC(=O)[C@H](C)[C@@H]1N=C(c2ccc(Cl)cc2)c2cc(OC)ccc2-n2c(C)nnc21 (relative stereo) [Compound 3] | 6.2 ± 0.3 | 1.2 ± 0.2 |  | 2000 | 63.1 | 1000 |  | 251 | 31.6 |  | 31.6 |  |  |  | 2000 |  | 1260 | 79.4 | > 3 | 0.7 | Papp [21]: 18.5 ×10⁻⁶ cm/s
9 | CCNC(=O)[C@H](CC)[C@@H]1N=C(c2ccc(Cl)cc2)c2ccc(OC)cc2-n2c(C)nnc21 (relative stereo) [Compound 22] | <4.0 | >1.2 | 5.2 ± 0.2 | > 100000 | 6310 | > 100000 | 7940 | 63100 | 3160 | > 100000 | 3980 | 63100 | 7940 | > 100000 | > 100000 | 20000 | > 100000 | 20000 | > 3 | 2.1 | Papp [21]: 5.9 ×10⁻⁶ cm/s
